Source: patent publication US12172941B2, “Organic compound and organic light-emitting device” (CANON KABUSHIKI KAISHA, priority 2020, dated 2024)

Columns and labels:
Type in all cases: physicochemical
[1] = Photoluminescence emission spectrum of toluene solution (F-4500); details: toluene solution 1×10^−5 mol/l, room temperature, excitation 350 nm
Method: The measurement was performed by measuring photoluminescence with F-4500 manufactured by Hitachi, Ltd. at room temperature and at an excitation wavelength of 350 nm.

[2] = Absolute PL quantum yield in solution (C9920-02); details: room temperature, relative value
[3] = Difference between decomposition temperature (TG/DTA) and sublimation temperature; details: decomposition: 5% weight loss in TG/DTA; sublimation: vacuum 1×10^−1 Pa, Ar flow
From the text: The decomposition temperature is a temperature at which the weight loss reaches 5% in TG/DTA measurement. […] In the toluene solubility test performed in a nitrogen atmosphere under reflux by heating while stirring, dissolution was visually inspected and was expressed as a relative value with respect to the amount of toluene (1.0) used to completely dissolve the exemplary compound A1.

| SMILES | Emission wavelength max [1] | λmax [1] | Quantum yield ([2]; exemplary compound A17 = 1.00) | Quantum yield ([2]; exemplary compound D2 = 1.00) | Decomposition temperature-sublimation temperature [3] [°C] |
| --- | --- | --- | --- | --- | --- |
| c1ccc(-c2cc3c4cc5c(cc4c(-c4ccccc4)cc3c3cc4c(cc23)-c2cccc3cccc-4c23)-c2cccc3cccc-5c23)cc1 [Comparative compound (1)] | 449 | 449 | 0.95 | 0.95 | – |
| c1ccc(-c2c3c(c(-c4ccccc4)c4c2ccc2c5cc6c(cc5ccc24)-c2cccc4cccc-6c24)-c2cccc4cccc-3c24)cc1 [Comparative compound (2)] | – | – | – | – | 70 |
| c1ccc(-c2c3c(c(-c4ccccc4)c4c2ccc2c5cc6c(cc5ccc24)-c2cccc4cccc-6c24)-c2cc4ccccc4c4cccc-3c24)cc1 [Exemplary compound A1] | – | – | – | – | 90 |
| c1ccc(-c2cc3c4cc5c(cc4c(-c4ccccc4)cc3c3cc4c(cc23)-c2cccc3cccc-4c23)-c2cccc3c2c-5cc2ccccc23)cc1 [Exemplary compound A17] | 449 | – | 1.00 | – | – |
| Cc1ccc(-c2cc3c4cc5c(cc4c(-c4ccc(C)cc4)cc3c3cc4c(cc23)-c2cc3ccccc3c3cccc-4c23)-c2cc3ccccc3c3cccc-5c23)cc1 [Exemplary compound D2] | – | 453 | – | 1.00 | – |
